# Measurements as given in article PMC10382351, “In vivo evaluation of a novel ^18F-labeled PET radioligand for translocator protein 18 kDa (TSPO) in monkey brain” (European Journal of Nuclear Medicine and Molecular Imaging, 2023).
# Several values for one entry are separate records, joined by “and”; a condition that tells them apart may be missing. Equal entries are not always repeated.
# Tested on: 18 kDa translocator protein (TSPO)
# Test: PET imaging of [^18F]SF51 in rhesus monkey brain with kinetic analysis (2TCM, Logan plot, Lassen plot)
# Format: in vivo
# Conditions: for Estimated K1: three rhesus monkeys; for VT/fP using Logan plot: n=3
# Experimental: Electrocardiogram, body temperature, heart rate, and respiratory rate measures were monitored throughout the scan.
# Brain PET imaging was performed using a microPET Focus 220 camera (Siemens Medical Solution; Knoxville, TN). […] For baseline experiments, 20 mL of a vehicle containing 20% (2-hydroxypropyl)-β-cyclodextrin and two equivalents of HCl were injected intravenously 10 min before radioligand administration. For the blocked experiment, PK11195 was dissolved in vehicle and then injected intravenously (5 mg/kg) 10 min before radioligand injection for all three monkeys. One of the three monkeys underwent an additional blocked scan with 5 mg/kg of PBR28, performed using a MultiScan™ LFER 150 PET/CT (Mediso USA, LLC; Arlington, VA). The interval between baseline and blocked imaging sessions was at least three weeks in order to allow the monkey to recover from arterial blood sampling. Focus 220 PET images were histogrammed into 30 time frames (6 × 30, 3 × 60, 2 × 120, 4 × 300, and 15 × 600 s) and reconstructed using Fourier rebinning plus a two-dimensional filtered back-projection with scatter and attenuation correction. MultiScan LFER PET images were reconstructed with 3D-OSEM with two iterations and nine subsets and were corrected for scatter and attenuation.
# PET images were co-registered to a standardized monkey MRI template using PMOD software (PMOD version 4.1, PMOD Technologies Ltd.; Zurich, Switzerland). Thirty-three predefined regions of interest (ROIs) from a monkey brain template were applied to the co-registered PET images to obtain regional time-activity curves (Supplementary Table S2). Brain uptake was expressed as standardized uptake value (SUV), which normalizes for injected radioactivity and body weight. Using the brain time-activity curves and the radiometabolite-corrected arterial input function, the total VT was derived from a two-tissue compartment model (2TCM). Receptor occupancy by PK11195 and nondisplaceable distribution volume (VND/fP) of [^18F]SF51 were determined by an axes-transformed Lassen plot, where the y-axis reports the difference in VT between the baseline and the blocked scans, corrected by the respective fp values, and the x-axis reports the values at baseline (VTbase/fPbase).
structure (smiles),measurement,setting,value
CC[C@@H](C)N(C)C(=O)c1nc(-c2cccc([18F])c2)c2ccccc2n1 [[^18F]SF51],VT/fP,"Baseline, Amygdala, 2TCM, n = 3",242 mL·cm^−3
same,Estimated K1,"Baseline, Amygdala, 2TCM",0.29 mL·cm^-3·min^-1
same,VT/fP using Logan plot,"Baseline, Amygdala",229 mL·cm^-3
same,VT/fP,"Baseline, Amygdala, one monkey (PBR28 experiment)",284 mL·cm^-3
same,VT/fP,"Baseline, Cerebellum, 2TCM, n = 3",179 mL·cm^−3
same,Estimated K1,"Baseline, Cerebellum, 2TCM",0.34 mL·cm^-3·min^-1
same,VT/fP using Logan plot,"Baseline, Cerebellum",172 mL·cm^-3
same,VT/fP,"Baseline, Cerebellum, one monkey (PBR28 experiment)",208 mL·cm^-3
same,VT/fP,"Baseline, Cingulate Cortex, 2TCM, n = 3",218 mL·cm^−3
same,Estimated K1,"Baseline, Cingulate Cortex, 2TCM",0.30 mL·cm^-3·min^-1
same,VT/fP using Logan plot,"Baseline, Cingulate Cortex",208 mL·cm^-3
same,VT/fP,"Baseline, Cingulate Cortex, one monkey (PBR28 experiment)",260 mL·cm^-3
same,VT/fP,"Baseline, Frontal Cortex, 2TCM, n = 3",201 mL·cm^−3
same,Estimated K1,"Baseline, Frontal Cortex, 2TCM",0.30 mL·cm^-3·min^-1
same,VT/fP using Logan plot,"Baseline, Frontal Cortex",192 mL·cm^-3
same,VT/fP,"Baseline, Frontal Cortex, one monkey (PBR28 experiment)",241 mL·cm^-3
same,VT/fP,"Baseline, Hippocampus, 2TCM, n = 3",220 mL·cm^−3
same,Estimated K1,"Baseline, Hippocampus, 2TCM",0.33 mL·cm^-3·min^-1
same,VT/fP using Logan plot,"Baseline, Hippocampus",211 mL·cm^-3
same,VT/fP,"Baseline, Hippocampus, one monkey (PBR28 experiment)",253 mL·cm^-3
same,VT/fP,"Baseline, Insula, 2TCM, n = 3",224 mL·cm^−3
same,Estimated K1,"Baseline, Insula, 2TCM",0.35 mL·cm^-3·min^-1
same,VT/fP using Logan plot,"Baseline, Insula",214 mL·cm^-3
same,VT/fP,"Baseline, Insula, one monkey (PBR28 experiment)",264 mL·cm^-3
same,VT/fP,"Baseline, Occipital Cortex, 2TCM, n = 3",183 mL·cm^−3
same,Estimated K1,"Baseline, Occipital Cortex, 2TCM",0.31 mL·cm^-3·min^-1
same,VT/fP using Logan plot,"Baseline, Occipital Cortex",175 mL·cm^-3
same,VT/fP,"Baseline, Occipital Cortex, one monkey (PBR28 experiment)",217 mL·cm^-3
same,VT/fP,"Baseline, Parietal Cortex, 2TCM, n = 3",202 mL·cm^−3
same,Estimated K1,"Baseline, Parietal Cortex, 2TCM",0.30 mL·cm^-3·min^-1
same,VT/fP using Logan plot,"Baseline, Parietal Cortex",193 mL·cm^-3
same,VT/fP,"Baseline, Parietal Cortex, one monkey (PBR28 experiment)",246 mL·cm^-3
same,VT/fP,"Baseline, Striatum, 2TCM, n = 3",225 mL·cm^−3
same,Estimated K1,"Baseline, Striatum, 2TCM",0.38 mL·cm^-3·min^-1
same,VT/fP using Logan plot,"Baseline, Striatum",215 mL·cm^-3
same,VT/fP,"Baseline, Striatum, one monkey (PBR28 experiment)",266 mL·cm^-3
same,VT/fP,"Baseline, Temporal Cortex, 2TCM, n = 3",209 mL·cm^−3
same,Estimated K1,"Baseline, Temporal Cortex, 2TCM",0.30 mL·cm^-3·min^-1
same,VT/fP using Logan plot,"Baseline, Temporal Cortex",201 mL·cm^-3
same,VT/fP,"Baseline, Temporal Cortex, one monkey (PBR28 experiment)",241 mL·cm^-3
same,VT/fP,"Baseline, Thalamus, 2TCM, n = 3",218 mL·cm^−3
same,Estimated K1,"Baseline, Thalamus, 2TCM",0.35 mL·cm^-3·min^-1
same,VT/fP using Logan plot,"Baseline, Thalamus",208 mL·cm^-3
same,VT/fP,"Baseline, Thalamus, one monkey (PBR28 experiment)",259 mL·cm^-3
same,VT/fP,"Baseline, Whole Brain, 2TCM, n = 3",203 ± 15 mL·cm^−3 and 203 mL·cm^−3
same,Estimated K1,"Baseline, Whole Brain, 2TCM",0.31 mL·cm^-3·min^-1
same,VT/fP using Logan plot,"Baseline, Whole Brain",194 mL·cm^-3
same,VT/fP,"Baseline, Whole Brain, one monkey (PBR28 experiment)",240 mL·cm^-3
same,VT/fP,"Blocked (PK11195 5 mg/kg i.v.), Amygdala, 2TCM, n = 3",23 mL·cm^−3
same,VT/fP,"Blocked (PK11195 5 mg/kg i.v.), Cerebellum, 2TCM, n = 3",26 mL·cm^−3
same,VT/fP,"Blocked (PK11195 5 mg/kg i.v.), Cingulate Cortex, 2TCM, n = 3",25 mL·cm^−3
same,VT/fP,"Blocked (PK11195 5 mg/kg i.v.), Frontal Cortex, 2TCM, n = 3",26 mL·cm^−3
same,VT/fP,"Blocked (PK11195 5 mg/kg i.v.), Hippocampus, 2TCM, n = 3",21 mL·cm^−3
